{
  "source": "patent US11325937B2",
  "about": "“Glycoside compound and preparation method therefor, composition, application, and intermediate” (SHANGHAI HUTCHISON PHARMACEUTICALS LIMITED, priority 2018, dated 2022)",
  "key": {"[1]": {"test_system": "HUVEC-12 endothelial cells", "experiment": "Migration of HUVEC-12 endothelial cells (scratch test)", "format": "cell-based, Human", "description": "The experiment included seven groups. In Group 1, HUVEC-12 endothelial cells (purchased from Shanghai RongChuang Biotech Co., Ltd.) were treated directly with simple DMEM medium (Gibcol, Shanghai) containing 10% FBS (SERANA, Germany) (control). In Group 2, the endothelial cells were treated with the supernatant obtained 24 h after macrophages were cultured with DMEM medium containing 10% FBS (s-control). In Group 3, the endothelial cells cultured with DMEM medium containing 10% FBS were treated directly with TG-028 (TG-028, 10 μM). In Group 4, the endothelial cells were treated with the supernatant obtained after macrophages cultured with DMEM medium containing 10% FBS were treated and co-incubated with TG-028 for 24 h (s-TG-028, […]). In Group 5, the endothelial cells cultured with DMEM medium containing 10% FBS were treated directly with Cpd-18 (Salvianolate) (cpd-18, 10 μM). In Group 6, the endothelial cells were treated with the supernatant obtained after macrophages cultured with DMEM medium containing 10% FBS were treated and co-incubated with Cpd-18 (Salvianolate, 10 μM) for 24 h (s-cpd18). In Group 7, the endothelial cells cultured with DMEM medium containing 10% FBS were treated directly with VEGFD (Recombinant Human VEGF165, 10 ng/mL).\nHuman umbilical vein endothelial cells HUVEC-12 in logarithmic growth phase were counted, adjusted to a cell density of 5×10^5 cells/mL, and inoculated in 1 mL per well in a 6-well plate. The cells were conventionally cultured in an incubator to form monolayer cells of 90% confluency. The 6-well plate fully plated with cells was scratched perpendicular to the cell surface with a 200 μL pipette tip from one end to the other end of the well. The scratches were made transversely with the pipette tip being as perpendicular as possible to the bottom of the plate. […]\nThe medium was aspirated and the cells scratched off were washed off with PBS. […] The migration of endothelial cells was detected according to the cell scratch method and the relative migration rate was calculated. […]"}, "[2]": {"test_system": "HUVEC-12 endothelial cells", "experiment": "Proliferation of HUVEC-12 endothelial cells (MTT)", "format": "cell-based, Human", "conditions": "HUVEC-12 treated with supernatant of macrophages co-incubated 24 h with compound, 10 μM (s- groups)", "description": "The experiment included seven groups. In Group 1, HUVEC-12 endothelial cells (purchased from Shanghai RongChuang Biotech Co., Ltd.) were treated directly with simple DMEM medium (Gibcol, Shanghai) containing 10% FBS ([…], Germany) (control). In Group 2, the endothelial cells were treated with the supernatant obtained 24 h after macrophages were cultured with DMEM medium containing 10% FBS (s-control). […] In Group 5, the endothelial cells cultured with DMEM medium containing 10% FBS were treated directly with Cpd-18 (Salvianolate) (cpd-18, 10 μM). In Group 6, the endothelial cells were treated with the supernatant obtained after macrophages cultured with DMEM medium containing 10% FBS were treated and co-incubated with Cpd-18 (Salvianolate, 10 μM) for 24 h (s-cpd18). In Group 7, the endothelial cells cultured with DMEM medium containing 10% FBS were treated directly with VEGFD (Recombinant Human VEGF165, 10 ng/mL). Human umbilical vein endothelial cells HUVEC-12 in logarithmic growth phase were counted, adjusted to a cell density of 2.5×10^4 cells/mL, and inoculated in 100 μL per well in a 96-well plate. […] Based on the measured absorbance (OD), the HUVEC-12 endothelial cells treated directly with simple DMEM medium (control) were used as a blank control (Group 1), the percentage of cell proliferation in each group was calculated, and compared. […]"}},
  "data": [
    {"smiles": "COc1ccc(CCCCO[C@@H]2O[C@H](CO)[C@@H](O)[C@H](O)[C@H]2O)cc1", "note": "[TG-028]", "values": [
      {"measurement": "effect on migration of endothelial cells (in words)", "setting": "[1]; HUVEC-12 treated with supernatant of macrophages co-incubated 24 h with compound, 10 μM (s- groups)", "result": "comparable effect on the migration of endothelial cells as VEGF"},
      {"measurement": "effect on migration of endothelial cells (in words)", "setting": "[1]; direct treatment of HUVEC-12, 24 h, compounds 10 μM, VEGF165 10 ng/mL, vs control medium", "result": "significant effect on the migration of endothelial cells"},
      {"measurement": "promotion of proliferation of endothelial cells (in words)", "setting": "[2]", "result": "more potent promotion on the proliferation of endothelial cells than the direct treatment of endothelial cells with VEGF"}
    ]}
  ]
}
